Source: the NIST ThermoML archive (doi:10.1016/j.jct.2011.10.014)

Details: 101.33 kPa, Crystal, Vacuum adiabatic calorimetry

O=C([O-])[O-].[Pb+2] [lead(II) carbonate]
Details | molar entropy [J/K/mol]
5 K | 0.0215
10 K | 0.2771
15 K | 1.17
20 K | 2.745
25 K | 4.823
30 K | 7.25
35 K | 9.921
40 K | 12.76
45 K | 15.72
50 K | 18.76
55 K | 21.83
60 K | 24.93
65 K | 28.02
70 K | 31.09
75 K | 34.13
80 K | 37.12
85 K | 40.07
90 K | 42.97
95 K | 45.81
100 K | 48.59
110 K | 53.97
120 K | 59.11
130 K | 64.03
140 K | 68.74
150 K | 73.25
160 K | 77.6
170 K | 81.78
180 K | 85.81
190 K | 89.7
200 K | 93.46
210 K | 97.11
220 K | 100.6
230 K | 104.1
240 K | 107.4
250 K | 110.7
260 K | 113.9
270 K | 117
273.15 K | 118
280 K | 120.1
290 K | 123
298.15 K | 125.4
300 K | 126
310 K | 128.9
320 K | 131.7
